# Test results: patent publication US8765730B2 (Hoffmann-La Roche Inc, priority 2010, dated 2014)
# Biological target: T1, human GPBAR1 receptor (Homo sapiens, UniProt Q8TDU6)
# T1 construct: expressed in transfected cells
# T1 sequence (Q8TDU6 1-330): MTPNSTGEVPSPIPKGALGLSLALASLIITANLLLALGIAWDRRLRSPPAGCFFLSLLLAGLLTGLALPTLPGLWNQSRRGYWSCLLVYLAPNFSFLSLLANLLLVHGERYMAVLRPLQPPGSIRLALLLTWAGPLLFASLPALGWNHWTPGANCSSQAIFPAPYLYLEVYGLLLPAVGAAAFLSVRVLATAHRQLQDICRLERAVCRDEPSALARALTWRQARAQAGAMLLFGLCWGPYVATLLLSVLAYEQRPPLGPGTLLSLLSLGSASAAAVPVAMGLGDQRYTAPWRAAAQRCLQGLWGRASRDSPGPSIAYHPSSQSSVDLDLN
# Assay: functional cAMP assay in CHO-dhfr(minus) cells expressing human GPBAR1 receptors
# Format: cell-based
# Conditions: human EC50, functional cAMP assay, 30 min at 30° C.
# Outline: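 Agonist cAMP read-out: stable GPBAR1 CHO-dhfr− clone, 30 min compound exposure at 30° C following 30 min IBMX (1 mM) preincubation in Krebs Ringer bicarbonate. Time-resolved energy-transfer detection gives EC50; parental CHO cells serve as counter-screen.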
row,SMILES,EC50
1,"Cc1cc(/C(CC(c2ccc(-c3ccc(C(=O)O)cc3)cc2)c2ccccc2C(F)(F)F)=N/O)ccn1 (centres unmarked) [Example 134, 4′-[3-[(E)-Hydroxyimino]-3-(2-methyl-pyridin-4-yl)-1-(2-trifluoromethyl-phenyl)-propyl]-biphenyl-4-carboxylic acid]",20 nM
2,"Cn1cc(/C(CC(c2ccccc2Cl)C2CCCC2)=N/O)ccc1=O (centres unmarked) [Example 197, 5-{3-(2-Chloro-phenyl)-3-cyclopentyl-1-[(E)-hydroxyimino]-propyl}-1-methyl-1H-pyridin-2-one]",12 nM
3,"Cc1ccccc1C(C/C(=N\O)c1ccc(=O)n(C)c1)c1ccc(Oc2ccc(C(=O)O)c(F)c2)cc1F (centres unmarked) [Example 222, 2-Fluoro-4-{3-fluoro-4-[3-[(E)-hydroxyimino]-3-(1-methyl-6-oxo-1,6-dihydro-pyridin-3-yl)-1-o-tolyl-propyl]-phenoxy}-benzoic acid]",3590 nM
4,"Cn1cc(/C(CC(c2ccc(=O)n(C)c2)c2ccccc2Cl)=N/O)ccc1=O (centres unmarked) [Example 250, (E)-5,5′-(1-(2-Chlorophenyl)-3-(hydroxyimino)propane-1,3-diyl)bis(1-methylpyridin-2(1H)-one)]",1350 nM
5,"Cc1ccccc1C(CC(=NO)c1ccnc(Cl)c1)c1ccc(Br)cc1 (racemic) [Example 119, 3-(4-Bromo-phenyl)-1-(2-chloro-pyridin-4-yl)-3-o-tolyl-propan-1-one oxime]",227 nM
6,"Cc1ccccc1C(C/C(=N\O)c1ccc(=O)n(C)c1)c1ccc(C(=O)N2CCOCC2)cc1 (centres unmarked) [Example 207, 5-{1-[(E)-Hydroxyimino]-3-[4-(morpholine-4-carbonyl)-phenyl]-3-o-tolyl-propyl}-1-methyl-1H-pyridin-2-one]",711 nM
7,"Cc1cc(C(CC(c2ccc(-c3ccc(F)c(C(=O)O)c3)cc2)c2ccccc2C)=NO)ccn1 (racemic) [Example 113, 4-Fluoro-4′-[3-[hydroxyimino]-3-(2-methyl-pyridin-4-yl)-1-o-tolyl-propyl]-biphenyl-3-carboxylic acid]",215 nM
8,"Cn1cc(/C(CC(c2ccc(Br)cc2)C2CCCC2)=N/O)ccc1=O (centres unmarked) [Example 172, 5-{3-(4-Bromo-phenyl)-3-cyclopentyl-1-[(E)-hydroxyimino]-propyl}-1-methyl-1H-pyridin-2-one]",56 nM
9,"CCOC(=O)c1cccc(-c2ccc(C(CC(=NO)c3ccnc(C)c3)c3ccccc3C)cc2)c1 (racemic) [Example 78, 4′-[3-[Hydroxyimino]-3-(2-methyl-pyridin-4-yl)-1-o-tolyl-propyl]-biphenyl-3-carboxylic acid ethyl ester]",381 nM
10,"COC(=O)c1ccc(-c2cccc(C(CC(=NO)c3ccnc(C)c3)c3ccccc3C)c2)cc1F (racemic) [Example 100, 3-Fluoro-3′-[3-[hydroxyimino]-3-(2-methyl-pyridin-4-yl)-1-o-tolyl-propyl]-biphenyl-4-carboxylic acid methyl ester]",514 nM
11,"Cc1cc(/C(C[C@H](c2ccc(N3CCC(O)CC3)cc2)c2ccccc2C)=N/O)ccn1 [Example 145, (E,R)-3-(4-(4-Hydroxypiperidin-1-yl)phenyl)-1-(2-methylpyridin-4-yl)-3-o-tolylpropan-1-one oxime]",1 nM
12,"Cc1cc(C(=NO)C(Cc2ccc(Br)cc2)c2ccccc2)cc(C)n1 (racemic) [Example 45, 3-(4-Bromo-phenyl)-1-(2,6-dimethyl-pyridin-4-yl)-2-phenyl-propan-1-one oxime]",1160 nM
13,"Cc1ccccc1[C@H](C/C(Cc1ccccn1)=N\O)c1ccc(Br)cc1 [Example 263, (E,R)-4-(4-bromophenyl)-1-(pyridin-2-yl)-4-o-tolylbutan-2-one oxime]",3210 nM
14,"Cc1ccccc1C(CC(=NO)c1ccncc1)c1ccc(-c2cccc(S(C)(=O)=O)c2)cc1 (racemic) [Example 32, 3-(3′-Methanesulfonyl-biphenyl-4-yl)-1-pyridin-4-yl-3-o-tolyl-propan-1-one oxime]",255 nM
15,"Cc1cc(/C(C[C@H](c2ccc(N3CCN(S(C)(=O)=O)CC3)cc2)c2ccccc2C)=N/O)ccn1 [Example 144, (E,R)-1-(2-Methylpyridin-4-yl)-3-(4-(4-(methylsulfonyl)piperazin-1-yl)phenyl)-3-o-tolylpropan-1-one oxime]",17 nM
16,"Cc1ccccc1C(C/C(=N\O)c1ccc(=O)n(C)c1)c1ccc(C(=O)NC[C@H](C)O)cc1 (stereo partly drawn) [Example 247, 4-((E)-3-(Hydroxyimino)-3-(1-methyl-6-oxo-1,6-dihydropyridin-3-yl)-1-o-tolylpropyl)-N-((S)-2-hydroxypropyl)benzamide]",220 nM
17,"Cn1cc(/C(CC(c2ccc(Br)cc2)C2CCCCC2)=N/O)ccc1=O (centres unmarked) [Example 178, 5-{3-(4-Bromo-phenyl)-3-cyclohexyl-1-[(E)-hydroxyimino]-propyl}-1-methyl-1H-pyridin-2-one]",42 nM

# Next, values leading:
row,EC50,SMILES
1,145 nM,"Cc1cc(/C(C[C@H](c2ccc(C3CCNCC3)cc2)c2ccccc2C)=N/O)ccn1 [Example 378, (R,E)-1-(2-Methylpyridin-4-yl)-3-(4-(piperidin-4-yl)phenyl)-3-o-tolylpropan-1-one oxime]"
2,12 nM,"Cc1cc(/C(CC(c2ccc(-c3ccc(C(=O)O)c(F)c3)cc2)c2ccc(Cl)cc2F)=N/O)ccn1 (centres unmarked) [Example 447, 4′-[1-(4-Chloro-2-fluoro-phenyl)-3-[(E)-hydroxyimino]-3-(2-methyl-pyridin-4-yl)-propyl]-3-fluoro-biphenyl-4-carboxylic acid]"
3,452 nM,"Cn1cc(/C(CC(c2ccc(S(C)(=O)=O)cc2)c2cc(F)cc(F)c2)=N/O)ccc1=O (centres unmarked) [Example 351, (E)-5-(3-(3,5-Difluorophenyl)-1-(hydroxyimino)-3-(4-(methylsulfonyl)phenyl)propyl)-1-methylpyridin-2(1H)-one]"
4,233 nM,"Cc1cc(/C(C[C@@H](c2ccc(O)cc2)c2ccc(Cl)cc2C)=N/O)ccn1 [Example 365, (S)-3-(4-Chloro-2-methyl-phenyl)-3-(4-hydroxy-phenyl)-1-(2-methyl-pyridin-4-yl)-propan-1-one oxime]"
5,634 nM,"Cc1ccccc1[C@H](C/C(=N\O)c1ccc(=O)n(C)c1)c1ccc(C2CCN(C(=O)OC(C)(C)C)CC2)cc1 [Example 506, (R,E)-tert-Butyl 4-(4-(3-(hydroxyimino)-3-(1-methyl-6-oxo-1,6-dihydropyridin-3-yl)-1-o-tolylpropyl)phenyl)piperidine-1-carboxylate]"
6,> 10000 nM,"Cc1cc(Cl)ccc1C(C/C(=N\O)c1ccc(=O)n(CCC(=O)O)c1)c1ccc(S(C)(=O)=O)cc1 (centres unmarked) [Example 345, (E)-3-(5-(3-(4-Chloro-2-methylphenyl)-1-(hydroxyimino)-3-(4-(methylsulfonyl)phenyl)-propyl)-2-oxopyridin-1(2H)-yl)propanoic acid]"
7,411 nM,"Cc1ccccc1[C@H](C/C(Cc1ccncc1)=N\O)c1ccc(-c2ccc(C(=O)O)cc2)cc1 [Example 298, 4′-{(R)-3-[(E)-Hydroxyimino]-4-pyridin-4-yl-1-o-tolyl-butyl}-biphenyl-4-carboxylic acid]"
8,171 nM,"CCOc1ccc([C@H](C/C(=N\O)c2ccnc(C)c2)c2ccc(Cl)cc2C)cc1 [Example 366, (S)-3-(4-Chloro-2-methyl-phenyl)-3-(4-ethoxy-phenyl)-1-(2-methyl-pyridin-4-yl)-propan-1-one oxime]"
9,4500 nM,"Cc1ccccc1[C@H](C/C(=N/O)c1ccc(=O)n(C)c1)c1ccc(C#N)cc1 [Example 499, (R,Z)-4-(3-(hydroxyimino)-3-(1-methyl-6-oxo-1,6-dihydropyridin-3-yl)-1-o-tolylpropyl)benzonitrile]"
10,405 nM,"CC(=O)N1CCC(c2ccc([C@@H](C/C(=N\O)c3ccc(=O)n(C)c3)c3ccccc3C)cc2)CC1 [Example 508, (R,E)-5-(3-(4-(1-Acetylpiperidin-4-yl)phenyl)-1-(hydroxyimino)-3-o-tolylpropyl)-1-methylpyridin-2(1H)-one]"
11,816 nM,"Cc1ccccc1C(C/C(=N\O)c1ccc(=O)n(C)c1)c1ccc(C(=O)NC(C)(C)CO)cc1 (centres unmarked) [Example 303, (E)-N-(1-Hydroxy-2-methylpropan-2-yl)-4-(3-(hydroxyimino)-3-(1-methyl-6-oxo-1,6-dihydropyridin-3-yl)-1-o-tolylpropyl)benzamide]"
12,148 nM,"Cc1cc(/C(CC(c2ccc(C(=O)NC3CCS(=O)(=O)CC3)cc2)c2ccc(F)cc2F)=N/O)ccn1 (centres unmarked) [Example 440, 4-[1-(2,4-Difluoro-phenyl)-3-[(E)-hydroxyimino]-3-(2-methyl-pyridin-4-yl)-propyl]-N-(1,1-dioxo-hexahydro-1λ^6-thiopyran-4-yl)-benzamide]"
13,113 nM,"Cc1cc(Cl)ccc1C(C/C(=N\O)c1ccc(=O)n(C)c1)c1ccc(C(=O)NC[C@@H](O)CO)cc1 (stereo partly drawn) [Example 335, 4-((E)-1-(4-Chloro-2-methylphenyl)-3-(hydroxyimino)-3-(1-methyl-6-oxo-1,6-dihydropyridin-3-yl)propyl)-N—((R)-2,3-dihydroxypropyl)benzamide]"
14,103 nM,"CC(=O)N1CCN(c2ccc(C(CC(=NO)c3ccnc(C)c3)c3ccc(F)cc3F)cn2)CC1 (centres unmarked) [Example 444, 3-[6-(4-Acetyl-piperazin-1-yl)-pyridin-3-yl]-3-(2,4-difluoro-phenyl)-1-(2-methyl-pyridin-4-yl)-propan-1-one oxime]"
15,18 nM,"Cc1cc(Cl)ccc1[C@H](C/C(=N\O)c1ccc(=O)n(C)c1)c1ccc(-c2ccc(S(N)(=O)=O)cc2)cc1 (single isomer, unassigned) [Example 413, (−)-4′-[1-(4-Chloro-2-methyl-phenyl)-3-[(E)-hydroxyimino]-3-(1-methyl-6-oxo-1,6-dihydro-pyridin-3-yl)-propyl]-biphenyl-4-sulfonic acid amide]"
